Key:
[1] = tested on: IL-1β-induced PGE2 release in human conjunctival fibroblasts (HConF); assay: IL-1β-induced PGE2 release in human conjunctival fibroblasts (ELISA); format: cell-based; conditions: 3-1000 nM, 18 hours
Method: Human conjunctival fibroblasts (HConF) were seeded in 24-well plates in complete Fibroblast Medium (FM) which contained 2% fetal bovine serum (FBS) and Fibroblast Growth Supplement (FGS). After reaching confluence (about 95%), cells were conditioned in basic FM that had been supplemented with 0.5% charcoal-dextran treated fetal bovine serum (CD-FBS) and without Fibroblast Growth Supplement (FGS) for 24 hours. […] Plates were performed in triplicate. Culture media were evaluated for PGE2 release by ELISA.

ocular signs = assay: Clinical dose ranging study after cataract surgery: ocular signs (biomicroscopy); format: in vivo, human
Excerpt: There were 8 treatment groups in this study, consisting of three drug doses, vehicle and three dosing frequencies (see also Table 4-1): • Group A: 1% BOL-303242-X ophthalmic suspension, two times per day (BID) • Group B: 2% BOL-303242-X ophthalmic suspension, one time per day (QD) • Group C: 2% BOL-303242-X ophthalmic suspension, BID • Group D: 2% BOL-303242-X ophthalmic suspension, four times per day (QID) • Group E: 3% BOL-303242-X ophthalmic suspension, QD • Group F: 3% BOL-303242-X ophthalmic suspension, BID • Group G: 3% BOL-303242-X ophthalmic suspension, QID • Group H: Vehicle for BOL-303242-X (divided equally into QID, BID, and QD)
Subjects self-administered study drug, instilling 1 to 2 drops of study drug into the study eye: QID at approximately 4 hour intervals, BID at approximately 12 hour intervals, or QD once in the morning, for 14 days. The initial dose occurred in the clinic at Visit 3 and the final dose was on the day before Visit 6 (postoperative Day 15±1 day). Subjects were examined and evaluated according to the following schedule:
Visit 1 (screening), Visit 2 (cataract surgery), Visit 3 (postoperative Day 1), Visit 4 (postoperative Day 3±1 day), Visit 5 (postoperative Day 8±1 day), Visit 6 (postoperative Day 15±1 day), Visit 7 (postoperative Day 18±1 day). Subject assessments included adverse events (AEs), concomitant medications, ocular symptoms, pinholed Snellen visual acuity (VA), intraocular pressure (IOP), ocular signs (biomicroscopy), fundoscopy, and study drug drop sensation. In addition, subject diaries were collected and reviewed for accuracy and treatment compliance.
Safety: The safety endpoints in this study were: incidence of AEs, change in IOP, ocular signs (biomicroscopy), Snellen VA, fundoscopy, study drug drop sensation assessment.

COX-2 = COX-2 protein in IL-1β-induced human conjunctival fibroblasts (Western blot); format: cell-based; conditions: 2 h pretreatment, then 24 h with IL-1β
Method: Cells were washed with ice-cold PBS and lysed in cell lysis buffer (62.5 mM Tris-HCl, pH 6.8, 2% sodium dodecyl sulfate (SDS), 10% glycerol). Cells were sonicated, and centrifuged at 12.000 rpm and protein concentration was determined using the Micro BCA protein assay kit. Proteins in aliquots of cell lysate (˜20 μg protein) were separated by SDS-polyacrylamide electrophoresis (SDS-PAGE) on 10% gels and transferred to PVDF membranes. Membranes were blocked with 5% BSA and exposed to mouse anti-COX-2 antibody (Caymen). The blots were washed, and exposed to horseradish peroxidase-conjugated anti-mouse secondary antibody. After washing, blots were incubated in ECL (enhanced chemiluminescence) solutions and chemiluminescent bands were visualized using the FluorChem imaging system (AlphaInnotech, San Leandro, Calif.). Blots were then stripped and re-probed for glyceraldehyde 3-phosphate dehydrogenase (GAPDH) (Zymed) antibody as loading controls. The experiment was repeated 3 times. Analysis of Western blot band density for COX-2 and GAPDH in captured digital images was done using the Alpha-Innotech Chemi-Imager software (Alpha Innotech; San Leandro, Calif.). Levels of COX-2 protein were normalized to GAPDH.

For `Cc1ccc2c(NCC(O)(CC(C)(C)c3cc(F)cc4c3OCC4)C(F)(F)F)cccc2n1` (stereo not drawn) [BOL-303242-X], the “Production of PGE2 by IL-1β-induced HConF” value [1] was “successfully inhibits”, the “Proportions of subjects with increases in scores for AC cells” value (ocular signs; Visit 4 (2% QD) and Visit 5 (2% QID, 3% QID)) was “statistically significantly lower proportions” and the “Proportions of subjects with increases in scores for ciliary flush” value (ocular signs; Visit 4 (2% QD), Visit 5 (1% BID, 2% QID, 3% BID, 3% QID), and Visit 7 (2% QID and 3% QD)) was “statistically significantly lower proportions”. For the same compound, the “Proportions of subjects with increases in scores for AC flare” value (ocular signs; Visit 4 (2% QID) and Visit 5 (3% BID)) was “statistically significantly lower proportions”, the “Proportions of subjects with increases in scores for chemosis” value (ocular signs; Visit 4 (3% BID)) was “statistically significantly lower proportions” and the “Proportions of subjects with increases in scores for palpebral conjunctival injection” value (ocular signs; Visit 5 (1% BI), 3% BID)) was “statistically significantly lower proportions”. The “Proportions of subjects with increases in scores for bulbar conjunctival injection” value (ocular signs; Visit 5 (2% QID, 3% BID, 3% QID)) was “statistically significantly lower proportions”, the “Proportions of subjects with increases in scores for anterior vitreous haze, corneal edema, corneal staining, eyelid erythema, hyphema, and posterior synechiae” value (ocular signs; any dose groups at any postoperative visits) was “No statistically significant differences” and the “Production of COX-2 by IL-1β-induced HConF” value (COX-2) was “successfully inhibits”.
